Reference: ChEMBL document CHEMBL4138198, “Synthesis of new 1-benzyl tetrahydropyridinylidene ammonium salts and their antimicrobial and anticellular activities” (Eur J Med Chem, 2018)
≈ marks a conversion by molar mass, not a printed value.

Legend:
[1] = system: Trypanosoma brucei rhodesiense; assay: Antitrypanosomal activity against Trypanosoma brucei rhodesiense STIB900 bloodstream forms after 70 hrs by Alamar blue staining-based fluorometric analysis; type: functional, organism-based; conditions: STIB900, 70 h
[2] = Selectivity index, ratio of IC50 for rat L6 cells to IC50 for erythrocytic stage of Plasmodium falciparum NF54; type: toxicity; conditions: read-out: Ratio IC50
[3] = Selectivity index, ratio of IC50 for rat L6 cells to IC50 for Trypanosoma brucei rhodesiense STIB900 bloodstream forms; type: toxicity; conditions: read-out: Ratio IC50
[4] = system: Plasmodium falciparum; assay: Antimalarial activity against erythrocytic stage of Plasmodium falciparum NF54 assessed as inhibition of [3H]-hypoxanthine incorporation after 48 hrs by liquid scintillation counting analysis; type: functional, organism-based
[5] = system: L6; assay: Cytotoxicity against rat L6 cells after 70 hrs by Alamar blue staining-based fluorometric analysis; type: cell-based; conditions: L6, 70 h
[6] = Growth inhibition of human MRC5 cells at 117 uM after 72 hrs by XTT assay relative to control; type: cell-based; conditions: read-out: GI
[7] = system: Plasmodium berghei; assay: Antiplasmodial activity against GFP expressing Plasmodium berghei ANKA infected in NMRI mouse assessed as reduction in parasitemia at 10 mg/kg, ip administered 4 hrs, 24 hrs, 48 hrs, 72 hrs post infection for 4 days and measured 72 hrs post infection by FACS analysis relative to control; type: functional; design: scale not given: the % may be the effect or the level left
[8] = system: Plasmodium berghei; assay: Antiplasmodial activity against GFP expressing Plasmodium berghei ANKA infected in NMRI mouse assessed as mouse mean survival days at 10 mg/kg, ip administered 4 hrs, 24 hrs, 48 hrs, 72 hrs post infection for 4 days and measured 72 hrs post infection by FACS analysis (reference value: 4 days); type: functional
[9] = Growth inhibition of human MRC5 cells assessed as metabolic active cells level at 123.3 uM after 72 hrs by XTT assay relative to control; type: ADME, cell-based; conditions: read-out: Activity
[10] = system: Candida parapsilosis; assay: Antimicrobial activity against Candida parapsilosis ATCC 90018 assessed as zone of inhibition at 50 ug per disc after 48 hrs by disc diffusion assay; type: functional; conditions: Lodderomyces parapsilosis, ATCC 90018, 48 h; read-out: DIZ
[11] = system: Bacillus subtilis; assay: Antimicrobial activity against Bacillus subtilis subsp. subtilis ATCC 6051 assessed as zone of inhibition at 50 ug per disc after 24 hrs by disc diffusion assay; type: functional; conditions: subsp. subtilis ATCC 6051, 24 h, read-out: DIZ
[12] = system: Mycolicibacterium smegmatis; assay: Antimycobacterial activity against Mycobacterium smegmatis ATCC 14468 after 72 hrs by MTT dye-based microbroth dilution assay; type: functional; conditions: ATCC 14468, 72 h
[13] = system: MRC5; assay: Cytotoxicity against human MRC5 cells after 72 hrs by XTT assay; type: cell-based; conditions: MRC5, 72 h
[14] = system: Klebsiella oxytoca; assay: Antimicrobial activity against Klebsiella oxytoca ATCC 8724 assessed as zone of inhibition at 50 ug per disc after 24 hrs by disc diffusion assay; type: functional; conditions: ATCC 8724, 24 h, read-out: DIZ
[15] = system: Candida albicans; assay: Antimicrobial activity against Candida albicans ATCC 10231 assessed as zone of inhibition at 50 ug per disc after 48 hrs by disc diffusion assay; type: functional; conditions: ATCC 10231, 48 h, read-out: DIZ
[16] = Growth inhibition of human MRC5 cells assessed as metabolic active cells level at 147.7 uM after 72 hrs by XTT assay relative to control; type: ADME, cell-based; conditions: read-out: Activity
[17] = system: Staphylococcus epidermidis; assay: Antimicrobial activity against Staphylococcus epidermidis ATCC 12228 assessed as zone of inhibition at 50 ug per disc after 24 hrs by disc diffusion assay; type: functional; conditions: ATCC 12228, 24 h, read-out: DIZ
[18] = system: Escherichia coli; assay: Antimicrobial activity against Escherichia coli ATCC 25922 assessed as zone of inhibition at 50 ug per disc after 24 hrs by disc diffusion assay; type: functional; conditions: ATCC 25922, 24 h, read-out: DIZ
[19] = system: Staphylococcus aureus; assay: Antimicrobial activity against Staphylococcus aureus subsp. aureus ATCC 25923 assessed as zone of inhibition at 50 ug per disc after 24 hrs by disc diffusion assay; type: functional; conditions: ATCC 25923, 24 h, read-out: DIZ
[20] = system: Candida tropicalis; assay: Antimicrobial activity against Candida tropicalis ATCC 13803 assessed as zone of inhibition at 50 ug per disc after 48 hrs by disc diffusion assay; type: functional; conditions: ATCC 13803, 48 h, read-out: DIZ
[21] = system: Pseudomonas aeruginosa; assay: Antimicrobial activity against Pseudomonas aeruginosa ATCC 27853 assessed as zone of inhibition at 50 ug per disc after 24 hrs by disc diffusion assay; type: functional; conditions: ATCC 27853, 24 h, read-out: DIZ
[22] = Growth inhibition of human MRC5 cells at 134 uM after 72 hrs by XTT assay relative to control; type: cell-based; conditions: read-out: GI

| Structure (SMILES) | IC50 [1] | selectivity ratio [2] | selectivity ratio [3] | IC50 [4] | IC50 ([5]; read-out: IC50) | other results |
| --- | --- | --- | --- | --- | --- | --- |
| CC(C)c1ccc(CN2C=CC(=[N+]3CCCC3)CC2(C)C)cc1 | 3.24 µM | 11.7 | 0.054 | 0.015 µM | 0.176 µM |  |
| CC1(C)CC(=[N+]2CCCC2)C=CN1Cc1cccc2ccccc12 | 0.89 µM | 9.68 | 0.69 | 0.063 µM | 0.61 µM |  |
| CC1(C)CC(=[N+]2CCCC2)C=CN1Cc1ccc(Br)cc1.[Br-] | 14.5 µM | 445 | 0.8 | 0.026 µM | 11.6 µM | inhibition at 72 h, 117 µM [6]: 27 to 56%; Activity [7]: 48.1%; MSD [8]: 4 days |
| Cc1ccc(CN2C=CC(=[N+]3CCCC3)CC2(C)C)cc1 | 4.24 µM | 949 | 22.4 | 0.1 µM | 94.9 µM |  |
| COc1cc(CN2C=CC(=[N+]3CCCC3)CC2(C)C)cc(OC)c1OC | 16.2 µM | 174 | 11.8 | 1.1 µM | 192 µM |  |
| CC1(C)CC(=[N+]2CCCC2)C=CN1Cc1ccccc1Cl | 10.5 µM | 81.1 | 0.93 | 0.12 µM | 9.73 µM |  |
| CC1(C)CC(=[N+]2CCCC2)C=CN1Cc1ccccn1 | 100 µM | > 150 | > 3.26 | 2.18 µM | > 327 µM |  |
| CC(C)(C)c1ccc(CN2C=CC(=[N+]3CCCC3)CC2(C)C)cc1 | 0.67 µM | 0.43 | 0.025 | 0.04 µM | 0.017 µM | viability at 72 h, 123.3 µM [9]: 0 to 10% |
| CC1(C)CC(=[N+]2CCCC2)C=CN1Cc1ccccc1C#N | 70.9 µM | > 245 | > 3.77 | 1.09 µM | > 267 µM |  |
| CC1(C)CC(=[N+]2CCCC2)C=CN1Cc1ccc(Cl)cc1Cl | 12.8 µM | 69.5 | 0.23 | 0.043 µM | 2.99 µM |  |
| CC1(C)CC(=[N+]2CCCC2)C=CN1c1ccccc1 |  |  |  | 0.36 µM |  |  |
| CC1(C)CC(=[N+]2CCCC2)C=CN1Cc1ccccc1 | 61.6 µM | 94.8 | 0.2 | 0.13 µM | 12.3 µM |  |
| CC1(C)CC(=[N+]2CCCC2)C=CN1Cc1ccc2c(c1)OCO2 | 18.7 µM | 451 | 1.11 | 0.046 µM | 20.8 µM |  |
| CC1(C)CC(=[N+]2CCCC2)C=CN1Cc1ccc(F)cc1.[Br-] | 39.2 µM | > 2480 | > 6.94 | 0.11 µM | > 272 µM | Activity [7]: 31.6%; MSD [8]: 4 days |
| CC1(C)CC(=[N+]2CCCC2)C=CN1Cc1ccccc1C(F)(F)F | 9.75 µM | 38.6 | 0.71 | 0.18 µM | 6.95 µM |  |
| COc1ccc(CN2C=CC(=[N+]3CCCC3)CC2(C)C)cc1 | 22.2 µM | 1530 | 7.56 | 0.11 µM | 168 µM |  |
| CC1(C)CC(=[N+]2CCCC2)C=CN1Cc1ccc(Cl)cc1.[Cl-] | 19.7 µM | 743 | 1.02 | 0.027 µM | 20.1 µM | zone of inhibition at 50 µg/disc [10]: 0 mm; zone of inhibition at 50 µg/disc [11]: 11 mm; MIC [12]: 32 µg/mL; IC50 [13]: 121 µM; zone of inhibition at 50 µg/disc [14]: 7 mm; zone of inhibition at 50 µg/disc [15]: 20 mm; viability at 72 h, 147.7 µM [16]: 0 to 10%; zone of inhibition at 50 µg/disc [17]: 22 mm; zone of inhibition at 50 µg/disc [18]: 0 mm; Activity [7]: 45.8%; zone of inhibition at 50 µg/disc [19]: 14 mm; MSD [8]: 9 days; zone of inhibition at 50 µg/disc [20]: 21 mm; zone of inhibition at 50 µg/disc [21]: 0 mm |
| CC1(C)CC(=[N+]2CCCC2)C=CN1Cc1ccc(Cl)c(Cl)c1.[Cl-] | 12.4 µM | 5350 | 9.03 | 0.021 µM | 112 µM | Activity [7]: 39.9%; MSD [8]: 4 days; inhibition at 72 h, 134 µM [22]: 27 to 56% |
| CCN(CC)CCCC(C)Nc1ccnc2cc(Cl)ccc12 (stereo unspecified) [CHLOROQUINE] |  |  |  |  |  | Activity [7]: 99.6%; MSD [8]: 20 days |
| OC(Cn1cncn1)(Cn1cncn1)c1ccc(F)cc1F [FLUCONAZOLE] |  |  |  |  |  | zone of inhibition at 50 µg/disc [10]: 28 mm; zone of inhibition at 50 µg/disc [15]: 24 mm; zone of inhibition at 50 µg/disc [20]: 36 mm |
| NNC(=O)c1ccncc1 [ISONIAZID] |  |  |  |  |  | MIC [12]: 4 µg/mL (≈ 29.2 µM) |
| NC[C@H]1O[C@H](O[C@H]2[C@H](O)[C@@H](O[C@H]3O[C@H](CO)[C@@H](O)[C@H](N)[C@H]3O)[C@H](N)C[C@@H]2N)[C@H](O)[C@@H](O)[C@@H]1O [KANAMYCIN] |  |  |  |  |  | zone of inhibition at 50 µg/disc [11]: 13 mm; zone of inhibition at 50 µg/disc [18]: 14 mm; zone of inhibition at 50 µg/disc [19]: 17 mm |
| CC1(C)S[C@@H]2[C@H](NC(=O)Cc3ccccc3)C(=O)N2[C@H]1C(=O)O [PENICILLIN G] |  |  |  |  |  | zone of inhibition at 50 µg/disc [14]: 8 mm |
| COc1cc([C@@H]2c3cc4c(cc3[C@H](O)[C@H]3COC(=O)[C@H]23)OCO4)cc(OC)c1OC [PODOFILOX] |  |  |  |  |  | IC50 [5]: 0.012 µM |
| CN(C)[C@@H]1C(O)=C(C(N)=O)C(=O)[C@@]2(O)C(O)=C3C(=O)c4c(O)cccc4[C@@](C)(O)[C@H]3C[C@@H]12 [TETRACYCLINE] |  |  |  |  |  | zone of inhibition at 50 µg/disc [17]: 13 mm |
